Test in all cases: growth of human tumour cells (NCI), 48 h
Assay [1] has as its system MALME-3M melanoma.
Assay [2] concerns SNB-75 CNS.
In assay [3] the test system is LOX IMVI melanoma.
For assay [4], the system named is A498 renal.
The subject of assay [5] is HT29 colon.
Assay [6] concerns MDA-MB-435.
The test system of assay [7] is OVCAR-3 ovarian.
Assay [8] deals with PC-3 prostate.
The test system of assay [9] is SK-OV-3 ovarian.
Assay [10] deals with SF-295 CNS.

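Cultured in 96-well plates, cells were exposed to test compound for 48 hours across five concentrations. GI50 is the concentration that inhibits growth by half. TGI: total growth inhibition.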

With `CCc1cc(O)c(Cl)c(C)c1Cl`, the TGI was 42.7 µM in assay [1]; 34.1 µM in assay [2]; 31.8 µM in assay [3]; 28.2 µM in [4]; 39.1 µM in [5]; 30.1 µM in [6]. Moreover, the TGI was 33.5 µM in assay [7], 40.2 µM in assay [8], 34.5 µM in [9] and 42.5 µM in assay [10].

Consider `Cc1nc2sc(C(=O)Nc3ccccc3)c(N)c2cc1C(=O)/C=C/c1ccccc1`, for which the GI50 in [1] was 2.35 µM; in assay [2], 2.18 µM; in assay [3], 1.68 µM; in [4] it was 2.21 µM; in assay [5], 1.77 µM; in assay [6], 1.54 µM. Moreover, the GI50 is 1.9 µM in [7], 2.14 µM in assay [8], 4.03 µM in [9] and 2.77 µM in assay [10]. Besides, the TGI in assay [1] came out at 7.71 µM; in assay [2], 6.12 µM; in assay [3], 3.13 µM; in [4], 6.08 µM; in assay [5], 3.95 µM; in assay [6], 3.73 µM. Besides, the TGI in assay [7] came out at 4.14 µM; in [8] it was 5.55 µM; in assay [9] it was 23.3 µM; in assay [10], 7.56 µM.

Regarding `COc1ccc2c3c(c(=O)n(C)c2c1OC)C=CC(C)(C)O3`, the TGI in assay [1] is over 100 µM; in assay [2] it was 48.2 µM; in assay [3], over 100 µM; in assay [4] it was 71.7 µM; in [5], 72.7 µM; in [6], over 100 µM. In addition, the TGI in [7], in [8], in assay [9] and in assay [10] was over 100 µM throughout.

As to `O=C1/C(=C/c2ccc(O)cc2)COc2ccc(-c3ccccc3)cc21`, the GI50 is 8.38 µM in assay [1]; 5.17 µM in assay [2]; 3.54 µM in assay [3]; 11.5 µM in assay [4]; 3.35 µM in assay [5]; 4.23 µM in assay [6]. Moreover, the GI50 in [7] is 2.49 µM; in assay [8], 5.09 µM; in assay [9], 21.4 µM; in assay [10], 6.8 µM. Also, the TGI in assay [1] amounted to 30.6 µM; in assay [2] it was 15.5 µM; in [3], 13.3 µM; in assay [4] it was 23.8 µM; in assay [5] it was 11.5 µM; in [6], 35.8 µM. Besides, the TGI in assay [7] was 8.14 µM; in assay [8], over 63.9 µM; in assay [9], 46.1 µM; in [10], 24.7 µM.

`O=C(CCl)N1c2ccccc2Sc2c1ccc1ccccc21`: the GI50 was 2.75 µM in assay [1]; 2.45 µM in assay [2]; 1.12 µM in assay [3]; 12.9 µM in assay [4]; 3.58 µM in assay [5]; 2.41 µM in assay [6]. Also, the GI50 in [7] is 1.86 µM; in assay [8], 1.74 µM; in [9], 13.4 µM; in [10], 2.38 µM. Also, the TGI was 7 µM in assay [1]; 7.78 µM in assay [2]; 2.42 µM in assay [3]; 25.9 µM in [4]; 15.5 µM in assay [5]; 7.06 µM in assay [6]. Besides, the TGI was 3.26 µM in [7], 4.45 µM in [8], 26.2 µM in assay [9] and 6.53 µM in assay [10].

On to `Clc1nc(Cl)c2c(ncn2C/C=C\Cn2cnc3c(Cl)nc(Cl)nc32)n1`, for which the GI50 in assay [1] is 2.22 µM; in [2], 2.19 µM; in assay [3], 1.36 µM; in [4], 12.4 µM; in [5] it was 1.4 µM; in assay [6] it was 1.93 µM. The GI50 in assay [7] was 1.68 µM; in [8], 2.31 µM; in assay [9] it was 2.48 µM; in assay [10], 8.99 µM. For the same compound, the TGI in assay [1] is 4.2 µM; in assay [2], 6.68 µM; in assay [3], 2.85 µM; in [4] it was 25.6 µM; in assay [5] it was 2.73 µM; in assay [6] it was 4.51 µM. The TGI in [7] is 3.04 µM; in [8], 5.58 µM; in [9], 9.07 µM; in assay [10], 21.1 µM.

Take `CN(C)C(=S)N=Nc1c(O)[nH]c2ccccc12`: the GI50 is 1.75 µM in [1]; 3.01 µM in assay [2]; 0.46 µM in [3]; 6.28 µM in assay [4]; 0.558 µM in assay [5]; 0.757 µM in [6]. The GI50 in assay [7] is 0.261 µM; in assay [8] it was 0.566 µM; in assay [9], 0.79 µM; in [10], 0.315 µM. Moreover, the TGI in assay [1] came out at 14.2 µM; in assay [2] it was 18.5 µM; in [3], 13.5 µM; in assay [4], 20.4 µM; in assay [5] it was 17 µM; in assay [6], 17.3 µM. Besides, the TGI was found to be 1.18 µM in assay [7], 29.7 µM in [8], 13.9 µM in assay [9] and 14.2 µM in [10].

In the case of `Nc1cc(N)c(N)cc1N`, the GI50 was 1.79 µM in assay [1]; 1.47 µM in assay [2]; 1.82 µM in [3]; 1.6 µM in [4]; 2.42 µM in assay [5]; 0.296 µM in assay [6]. The GI50 in assay [7] is 1.97 µM; in assay [8] it was 3.1 µM; in [9], 7.12 µM; in [10], 1.7 µM. The TGI in [1] was determined as 3.45 µM; in [2] it was 2.87 µM; in [3], 3.75 µM; in assay [4], 4.67 µM; in [5], 4.86 µM; in assay [6], 0.851 µM. For the same compound, the TGI is 4.46 µM in assay [7], over 100 µM in [8], 42.2 µM in [9] and 3.31 µM in assay [10].

Source of the values: PubChem BioAssay (NCI).
